Drawing on patent US20260176289A1, “SMALL MOLECULE INHIBITORS OF KRAS PROTEINS” (Merck Sharp & Dohme LLC, priority 2022, published 2026), this text covers IC50 for 13 molecules.

Like-named read-outs stand apart in the source and are kept apart here.

In one assay the target is KRAS-G12D (Homo sapiens, UniProt P01116, G12D). Kind of assay: SOS-catalyzed nucleotide exchange assay (Procedure A, TR-FRET), KRAS-G12D. The conditions noted are these: nucleotide exchange, read-out: KRAS G12D GNE IC50. The class given is biochemical. The method, boiled down: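 Signal ratio (520/495 nm, excitation 340 nm) reports Bodipy-GDP retention on biotinylated RAS after SOS-catalyzed exchange with 3 mM GTP. SOS was 40 nM, except 160 nM for G12V. Room-temperature exchange lasted 60 min (90 min for G12V), following a 60 min compound preincubation.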
KRAS-G12D, sequence (P01116 with tags, fused parts or gaps isoform P01116-2 G12D): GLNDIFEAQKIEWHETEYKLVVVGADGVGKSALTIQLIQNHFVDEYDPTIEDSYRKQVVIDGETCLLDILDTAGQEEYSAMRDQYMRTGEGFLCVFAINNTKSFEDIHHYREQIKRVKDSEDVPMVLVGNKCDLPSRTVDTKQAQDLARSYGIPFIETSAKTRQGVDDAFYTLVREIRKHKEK

The subject of the next assay is SW620 cells. Kind of assay: Cellular phospho-ERK assay, SW620 cells (homozygous KRAS-G12V). The class given is cell-based. The conditions noted are these: Homo sapiens, read-out: SW620 pERK IC50. The method, boiled down:
(§1)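 Cells were seeded overnight, then treated 2 h at 37° C with compound in a 10-point, 1:3 titration from 30 μM top final concentration. Lysates were assayed by AlphaLISA SureFire Ultra for p-ERK and total ERK. IC50 came from a 4-parameter logistic fit of the p-ERK/total ERK ratio.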

For the next assay, the system named is AsPC-1 cells. Kind of assay: Cellular phospho-ERK assay, AsPC-1 cells (homozygous KRAS-G12D). The class given is cell-based. The conditions noted are these: Homo sapiens, ASPC1, 2 h, read-out: AsPC1 pERK IC50. The method in brief:
as §1

The next assay deals with KRAS-G12V (Homo sapiens, UniProt P01116, G12V). Description: SOS-catalyzed nucleotide exchange assay (Procedure A, TR-FRET), KRAS-G12V. The class given is biochemical. To be noted: nucleotide exchange, read-out: KRAS G12V GNE IC50. The method in brief: (§2)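 Compounds (10-point, 3-fold) were preincubated 60 min at room temperature with a biotinylated RAS/Bodipy-GDP/Tb-streptavidin TR-FRET complex. Exchange was started with human SOS plus 3 mM GTP. RAS/SOS: G12C 3/40 nM, WT 1/40 nM, NRAS 1.25/40 nM (60 min); G12V 1.25/160 nM (90 min). The 520/495 ratio was fit four-parameter.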
KRAS-G12V, sequence (P01116 with tags, fused parts or gaps isoform P01116-2 G12V): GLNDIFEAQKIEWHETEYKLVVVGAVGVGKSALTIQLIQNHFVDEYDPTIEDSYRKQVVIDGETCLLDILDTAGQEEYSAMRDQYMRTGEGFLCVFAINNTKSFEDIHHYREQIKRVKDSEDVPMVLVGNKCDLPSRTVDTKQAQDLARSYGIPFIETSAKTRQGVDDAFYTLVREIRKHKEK
A general note: TR-FRET usually uses a lanthanide donor and a delayed reading to cut background.

The test system of another assay is MKN-1 cells. Kind of assay: Cellular phospho-ERK assay, MKN-1 cells (amplified wild-type KRAS). The class given is cell-based. The conditions noted are these: Homo sapiens, read-out: MKN1 pERK IC50. The method, boiled down: as §1
Another assay deals with KRAS-WT (Homo sapiens, UniProt P01116). Kind of assay: SOS-catalyzed nucleotide exchange assay (Procedure A, TR-FRET), KRAS-WT. The conditions noted are these: nucleotide exchange, read-out: KRAS WT GNE IC50. The class given is biochemical. The method, boiled down:
as §2

[1] abbreviates: SW-620, 2 hours compound incubation.
Setting [2] is: amplified wild-type KRAS, 2 hours.

KRAS-WT, sequence (P01116 with tags, fused parts or gaps isoform P01116-2): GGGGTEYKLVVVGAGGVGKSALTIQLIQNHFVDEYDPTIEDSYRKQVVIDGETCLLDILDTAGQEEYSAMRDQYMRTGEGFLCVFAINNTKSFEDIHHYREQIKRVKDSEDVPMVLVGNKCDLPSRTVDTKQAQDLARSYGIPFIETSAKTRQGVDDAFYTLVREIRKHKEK

Broadly, the IC50 is the midpoint of a concentration-inhibition curve. In the case of `C[C@@]1(O)COCCN(c2nc(OC[C@]3(CN4CCC5(CC5)C4)CC3(F)F)nc3sc4c(-c5c(C6(F)CC6)c(Cl)cc6[nH]ncc56)nccc4c23)C1` [Ex-262, (6S)-4-(2-(((R)-1-((5-azaspiro[2.4]heptan-5-yl)methyl)-2,2-difluorocyclopropyl)methoxy)-8-(6-chloro-5-(1-fluorocyclopropyl)-1H-indazol-4-yl)pyrido[4′,3′:4,5]thieno[2,3-d]pyrimidin-4-yl)-6-methyl-1,4-oxazepan-6-ol], the IC50 at KRAS-G12D turned out to be 4.44 nM; with SW620 cells (setting [1]) it was 66.1 nM; in the assay with AsPC-1 cells (2 hours compound incubation), 119 nM; at KRAS-G12V it was 26.7 nM; with MKN-1 cells (2 hours compound incubation) it was 52.4 nM; on KRAS-WT, 22.2 nM.
Consider `C#C[C@@H]1CCCc2cc3[nH]ncc3c(-c3nccc4c3sc3nc(OC[C@@]56CCCN5C[C@H](F)C6)nc(N5CCOC[C@@](C)(O)C5)c34)c21` [Ex-175], for which the IC50 at KRAS-G12D stood at 82.1 nM; with SW620 cells (setting [1]), 278 nM; with AsPC-1 cells (2 hours compound incubation), 856 nM; at KRAS-G12V it was 66.3 nM; with MKN-1 cells (2 hours compound incubation), 324 nM; at KRAS-WT, 186 nM.
With `C[C@@]1(O)COCCN(c2nc(OC[C@@]34CCN3C[C@H](F)C4)nc3sc4c(-c5c(C6CC6)c(Cl)cc6[nH]ncc56)nccc4c23)C1` (single isomer, unassigned) [Ex-221], the IC50 was determined as 5.55 nM on KRAS-G12D; 79.4 nM in the assay on SW620 cells (setting [1]); 175 nM in the assay with AsPC-1 cells (2 hours compound incubation); 21.2 nM at KRAS-G12V; 80.7 nM in the assay with MKN-1 cells (2 hours compound incubation); 22.8 nM at KRAS-WT.
Consider `CO[C@H]1CN2CCC[C@@]2(COc2nc(N3CCOC[C@@](C)(O)C3)c3c(n2)sc2c(-c4c(C5CC5)c(Cl)cc5[nH]ncc45)nccc23)C1` [Ex-229, (6S)-4-(8-(6-chloro-5-cyclopropyl-1H-indazol-4-yl)-2-(((2R,7aS)-2-meth-oxytetrahydro-1H-pyrrolizin-7a(5H)-yl)methoxy)pyrido [4′,3′:4,5]thieno[2,3-d]pyrimidin-4-yl)-6-methyl-1,4-oxaze-pan-6-ol], for which the IC50 stood at 6.54 nM at KRAS-G12D; 38.2 nM in the assay on SW620 cells (setting [1]); 109 nM in the assay with AsPC-1 cells (2 hours compound incubation); 19.1 nM on KRAS-G12V; 51.9 nM in the assay with MKN-1 cells (2 hours compound incubation); 22.5 nM at KRAS-WT.
Turning to `Cc1c(C(F)(F)F)c(-c2nccc3c2sc2nc(OC[C@@]45CCCN4C[C@H](F)C5)nc(N4CCOC[C@@](C)(O)C4)c23)c2cn[nH]c2c1F` [Ex-44, (6S)-4-(8-(7-fluoro-6-methyl-5-(trifluoromethyl)-1H-indazol-4-yl)-2-(((2R,7aS)-2-fluorotetrahydro-1H-pyrrolizin-7a(5H)-yl)methoxy)pyrido[4′,3′:4,5]thi-eno[2,3-d]pyrimidin-4-yl)-6-methyl-1,4-oxazepan-6-ol], the IC50 is 141 nM on KRAS-G12D; 281 nM with SW620 cells (SW-620, KRAS-G12V, 2 hours); 452 nM in the assay on AsPC-1 cells (KRAS-G12D, 2 hours); 242 nM at KRAS-G12V; 373 nM with MKN-1 cells (setting [2]); 281 nM at KRAS-WT.
As to `Cc1cc2[nH]ncc2c(-c2nccc3c2sc2nc(OC[C@@]45CCCN4C[C@H](F)C5)nc(N4CCOCC5(CC(C)O5)C4)c23)c1C(F)(F)F` (stereo partly drawn) [Ex-199, 9-(2-(((2R,7aS)-2-fluoro-tetrahydro-1H-pyrrolizin-7a(5/7)-yl)methoxy)-8-(6-methyl-5-(trifluorometh-yl)-1H-indazol-4-yl)pyrido [4′,3′:4,5]thieno[2,3-d]pyr-imidin-4-yl)-2-methyl-1,6-dioxa-9-azaspiro[3.6] decane], the IC50 came out at 86.8 nM on KRAS-G12D; 190 nM with SW620 cells (setting [1]); 374 nM in the assay with AsPC-1 cells (2 hours compound incubation); 92.6 nM on KRAS-G12V; 313 nM in the assay with MKN-1 cells (2 hours compound incubation); 287 nM at KRAS-WT.
`CCc1csc2cc3[nH]ncc3c(-c3nccc4c3sc3nc(OC[C@@]56CCCN5C[C@H](F)C6)nc(N5CCOC[C@@](C)(O)C5)c34)c12` [Ex-168, (6S)-4-(8-(5-ethyl-1H-thieno[3,2-f]indazol-4-yl)-2-(((2R,7aS)-2-fluorotetrahydro-1H-pyrrolizin-7a(5H)-yl)methoxy)pyrido [4′,3′:4,5]thieno[2,3-d]pyrimidin-4-yl)-6-methyl-1,4-oxazepan-6-ol]: the IC50 on KRAS-G12D turned out to be 3.17 nM; with SW620 cells (setting [1]), 13 nM; with AsPC-1 cells (2 hours compound incubation), 31.4 nM; on KRAS-G12V, 5.49 nM; with MKN-1 cells (2 hours compound incubation), 25.8 nM; on KRAS-WT it was 7.25 nM.
Take `CC1(O)COCCN(c2nc(OCC3(CN4CC5C(F)C5C4)CC3(F)F)nc3sc4c(-c5c(C6CC6)c(Cl)cc6[nH]ncc56)nccc4c23)C1` [Ex-214, (6S)-4-(8-(6-chloro-5-cyclopropyl-1H-indazol-4-yl)-2-(((R)-2,2-difluoro-1-(((1R,5S,6R)-6-fluoro-3-azabicyclo [3.1.0]hexan-3-yl)-methyl)cycloprop-yl)methoxy)pyrido [4′,3′:4,5]thieno[2,3-d]pyrimidin-4-yl)-6-methyl-1,4-oxaze-pan-6-ol]: the IC50 on KRAS-G12D stood at 62.8 nM; in the assay with SW620 cells (setting [1]) it was 107 nM; in the assay on AsPC-1 cells (2 hours compound incubation), 136 nM; on KRAS-G12V, 243 nM; in the assay with MKN-1 cells (2 hours compound incubation), 171 nM; at KRAS-WT, 498 nM.
In the case of `Cc1cc2[nH]ncc2c(-c2nccc3c2sc2nc(OC[C@@]45CCCN4C[C@H](F)C5)nc(N4CCOC[C@@](C)(O)C4)c23)c1-c1ccc(F)o1` [Ex-72, (6S)-4-(8-(5-(5-fluorofuran-2-yl)-6-methyl-1H-indazol-4-yl)-2-(((2R,7aS)-2-fluorotetrahydro-1H-pyrrolizin-7a(5H)-yl)methoxy)pyrido[4′,3′:4,5]thi-eno[2,3-d]pyrimidin-4-yl)-6-methyl-1,4-oxazepan-6-ol], the half-maximal inhibitory concentration (IC50) turned out to be 15 nM at KRAS-G12D; 53.8 nM in the assay with SW620 cells (SW-620, KRAS-G12V, 2 hours); 139 nM in the assay with AsPC-1 cells (KRAS-G12D, 2 hours); 35.3 nM on KRAS-G12V; 82.4 nM with MKN-1 cells (setting [2]); 53.9 nM on KRAS-WT.
For `C[C@@]1(O)COCCN(c2nc(OC[C@@]34C[C@H](F)CN3CC3(CC3)C4)nc3sc4c(-c5c(C6CC6)c(Cl)cc6[nH]ncc56)nccc4c23)C1` [Ex-219, (6S)-4-(8-(6-chloro-5-cyclopropyl-1H-indazol-fluoro-dihydro-1H,3′H-spiro[cyclopropane-1,2′-yl)methoxy)-pyrido[4′,3′:4,5]thieno[2,3-d]pyr-imidin-4-yl)-6-methyl-1,4-oxaze-pan-6-ol], the concentration for half-maximal inhibition (IC50) on KRAS-G12D turned out to be 82.7 nM; in the assay with SW620 cells (setting [1]) it was 230 nM; with AsPC-1 cells (2 hours compound incubation) it was 305 nM; at KRAS-G12V, 196 nM; in the assay with MKN-1 cells (2 hours compound incubation), 318 nM; on KRAS-WT it was 255 nM.
For `CCc1cc2[nH]ncc2c(-c2nccc3c2sc2nc(OC[C@@]45CCCN4C[C@H](F)C5)nc(N4CCOC[C@@](C)(O)C4)c23)c1C1CC1` [Ex-48, (6S)-4-(8-(5-cyclopropyl-6-ethyl-1H-indazol-4-yl)-2-(((2R,7aS)-2-fluorotetrahydro-1H-pyrrolizin-7a(5H)-yl)methoxy)pyrido[4′,3′:4,5]thi-eno[2,3-d]pyrimidin-4-yl)-6-methyl-1,4-oxazepan-6-ol], the IC50 came to 18.2 nM at KRAS-G12D; 106 nM in the assay on SW620 cells (SW-620, KRAS-G12V, 2 hours); 153 nM in the assay with AsPC-1 cells (KRAS-G12D, 2 hours); 28.5 nM at KRAS-G12V; 123 nM in the assay with MKN-1 cells (setting [2]); 50.4 nM at KRAS-WT.
For `C[C@@]1(O)COCCN(c2nc(OC[C@]3(CN4CCC4)CC3(F)F)nc3sc4c(-c5c(C6(F)CC6)c(Cl)cc6[nH]ncc56)nccc4c23)C1` [Ex-239, (6S)-4-(2-(((R)-1-(azetidin-1-ylmethyl)-2,2-difluorocyclopropyl)methoxy)-8-(6-chloro-5-(1-fluorocyclopropyl)-1H-indazol-4-yl)pyrido[4′,3:′4,5]thieno[2,3-d]pyrimidin-4-yl)-6-methyl-1,4-oxazepan-6-ol], the half-inhibitory concentration (IC50) came to 1.85 nM on KRAS-G12D; 29.4 nM in the assay on SW620 cells (setting [1]); 54.5 nM in the assay with AsPC-1 cells (2 hours compound incubation); 11.4 nM at KRAS-G12V; 33.7 nM in the assay with MKN-1 cells (2 hours compound incubation); 8.2 nM on KRAS-WT.
Consider `C[C@@H]1CCCc2cc3[nH]ncc3c(-c3nccc4c3sc3nc(OC[C@@]56CCCN5C[C@H](F)C6)nc(N5CCOC[C@@](C)(O)C5)c34)c21` [Ex-116], for which the IC50 on KRAS-G12D came to 4.87 nM; with SW620 cells (SW-620, KRAS-G12V, 2 hours), 36.4 nM; with AsPC-1 cells (KRAS-G12D, 2 hours), 56.6 nM; at KRAS-G12V, 17.9 nM; in the assay on MKN-1 cells (setting [2]), 46.4 nM; at KRAS-WT it was 9.84 nM.
